Drawing on PubChem BioAssay AID179 (DTP/NCI, 2004), this text covers EC50, IC50 and outcome for 68 compounds.

Active and inactive are the calls of the source.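 How the source made its calls: active means compounds giving half or more protection of infected cells from virus-caused growth loss, again on retest; inactive means the rest.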 Where a SMILES comes first, the peptide text is derived from it.

As usually defined, the EC50 is the midpoint of the concentration-response curve. As usually defined, the IC50 is the midpoint of a concentration-inhibition curve.

The test system of this assay is CEM cells HIV-1 protection, formazan growth assay. In words: NCI AIDS Antiviral Assay. The note with it: for IC50: measured here: growth of uninfected CEM cells. A digest of the protocol:
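Soluble formazan readout of cell growth; CEM cells ± HIV-1; 5 drug concs. ≥50% protection → retest; ≥50% again = moderately active; reproducible 100% = confirmed active.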

With `Cc1ccc(/C=c2\cc3oc(=O)c4cccc(c4-3)c2=O)cc1`, the EC50 was over 200 µM and the IC50 was 3.8 µM.

On to `C[n+]1cn(-c2ccc([N+](=O)[O-])cn2)c2ccccc21`, for which the EC50 was over 200 µM and the IC50 came to 170 µM.

Regarding `O=C(CCc1n[nH]c(=S)o1)Nc1cc(Cl)c(Cl)cc1Cl`, the result was inactive.

As for `COC(=O)C(C(=O)C(=O)Nc1ccc([N+](=O)[O-])cc1[N+](=O)[O-])c1nc2ccc(Cl)cc2[nH]c1=O` (stereo not drawn), the EC50 was over 74.1 µM and the 50% inhibitory concentration (IC50) turned out to be 66.1 µM.

Regarding `O=C1OC(=O)C2C1C(c1ccc(Cl)cc1)N1C3C(=O)OC(=O)C3C(c3ccc(Cl)cc3)N21` (stereo not drawn), the EC50 was over 28.8 µM and the IC50 is over 28.8 µM.

Turning to `O=c1[nH]c(=O)n([C@H]2C[C@@H](CO)[C@@H](O)C2)cc1I`, the EC50 was over 708 µM and the IC50 is over 708 µM.

Take `CCO/N=C(/CC)c1ccc(Br)s1`: the EC50 was over 200 µM and the IC50 was 102 µM.

Consider `CC1NCC(O)C(O)C1O` (stereo not drawn), for which the EC50 is over 49 µM and the IC50 was over 49 µM.

Turning to `COc1ccc(C2Oc3ccccc3C(=O)C2N)cc1` (stereo not drawn), the EC50 is over 200 µM and the IC50 worked out at 93.3 µM.

Turning to `CCC(C)C(NC(=O)CNC(=O)C(Cc1cnc[nH]1)NC(=O)C(NC(=O)C(CS)NC(=O)C(CCC(N)=O)NC(=O)C(NC(=O)C(NC(=O)C(CO)NC(=O)C(NC(=O)C(CC(N)=O)NC(=O)C(NC(=O)C(CS)NC(=O)C1CCCN1C(=O)CNC(=O)C(NC(=O)CN)C(C)O)C(C)O)C(C)C)C(C)O)C(C)C)C(C)O)C(=O)NC(CCCN=C(N)N)C(N)=O` (stereo not drawn) (H-GTGPCTNVSTVQCTHGIR-NH2; configuration not given here), the EC50 was over 50.1 µM and the IC50 is over 50.1 µM.

As to `CN1C(=O)N/C(=C\c2ccc(S(=O)(=O)NN)cc2)C1=O`, the EC50 was over 200 µM and the IC50 is over 100 µM.

Take `O=C1CCC(N2C(=O)C3CC=CCC3C2=O)C(=O)N1` (stereo not drawn): the EC50 is over 200 µM and the IC50 is over 200 µM.

Consider `Cn1c(=O)c2c(nc3n(Cc4ccccc4)c(=O)c(Br)cn23)n(C)c1=O`, for which the EC50 was over 100 µM and the IC50 was determined as 38.9 µM.

Consider `CC(=O)C1C(=O)C(=O)N(c2ccccc2C(C)C)C1=O` (stereo not drawn), for which the result was inactive.

As to `COc1ccccc1CN1CC(C)N(N=Cc2c3c(O)c4c(O)c(C)c5c(c4c2O)C(=O)C(C)(O/C=C/C(OC)C(C)C(OC(C)=O)C(C)C(O)C(C)C(O)C(C)/C=C/C=C(\C)C(=O)N3)O5)C(C)C1` (stereo not drawn), the EC50 was over 200 µM and the IC50 stood at 7.76 µM.

In the case of `COC(OC)[C@@H]1OC[C@H](n2ccc(=O)[nH]c2=O)[C@H]1O`, the EC50 is over 200 µM and the IC50 was over 200 µM.

As to `Cn1c2c(c3ccccc31)C1CCCCCCC1C1C(=O)OC(=O)C21` (stereo not drawn), the result was inactive.

Turning to `O=C1Cc2c(-c3cccs3)cc(-c3ccccc3)nc2-c2ccccc2N1`, the EC50 was over 200 µM and the IC50 worked out at 46.8 µM.

Regarding `N=C1SCC(=O)N1CCN1C(=N)SCC1=O`, the EC50 was over 79.4 µM and the IC50 is over 79.4 µM.

For `O=c1c2c(sc3ccccc13)CCC2`, the EC50 was over 151 µM and the half-maximal inhibitory concentration (IC50) is over 151 µM.

`CCCCN(CCCC)CCCOC(=O)c1ccc2oc3ccc(C(=O)OCCCN(CCCC)CCCC)cc3c2c1`: the EC50 was over 38.9 µM and the 50% inhibitory concentration (IC50) worked out at 10.5 µM.

`CC(c1ccccc1)N1C(=O)CSC1=S` (stereo not drawn): the result was inactive.

For the compound `CCC(=O)c1c(NOC2OCC(OC(C)=O)C(OC(C)=O)C2OC(C)=O)nc(OC)n(C)c1=O` (stereo not drawn), the EC50 is over 53.7 µM and the IC50 is over 53.7 µM.

As for `CCCCCCCCCCCCCCCCC(O)CS(=O)(=O)O` (stereo not drawn), the EC50 was over 100 µM and the IC50 was 16.2 µM.

As for `O=C1Nc2noc(=O)nc2NO1`, the EC50 is over 200 µM and the IC50 is over 200 µM.

Regarding `O=C(O)C1C(c2ccccc2)C=CC(c2ccccc2)C1C(=O)O` (stereo not drawn), the result was inactive.

Regarding `C1CN2CCC1C1(C2)SSC2(CN3CCC2CC3)S1` (stereo not drawn), the EC50 is over 200 µM and the IC50 was over 200 µM.

With `O=c1c2cc(S(=O)(=O)Nc3ccccc3Cl)ccc2ncn1NS(=O)(=O)c1ccc(Br)cc1`, the outcome was inactive.

As to `C(=C\CSc1ccccc1)/CSc1ccccc1`, the EC50 is over 13.8 µM and the IC50 is over 13.8 µM.

With `CN(C)CCN(C(=Nc1ccccc1)N1CCCC1)c1ccccc1`, the EC50 was over 200 µM and the IC50 came out at 8.32 µM.

Take `COC(=O)[C@H](Cc1ccccc1)NC(=O)N1CCN(C(=O)N[C@@H](Cc2ccccc2)C(=O)OC)CCN(C(=O)N[C@@H](Cc2ccccc2)C(=O)OC)CC1`: the EC50 was over 200 µM and the IC50 is over 200 µM.

Regarding `Cc1cc(=O)[nH]c(NN2C(Cl)C(=O)C2c2ccco2)n1` (stereo not drawn), the EC50 was over 17.8 µM and the IC50 is over 17.8 µM.

Consider `CN(C)c1ncnc2c1ncn2C1OC(CO)CC1F` (stereo not drawn), for which the EC50 was 141 µM and the IC50 is 178 µM.

Consider `CC(C)(C)OC(=O)C1CC[C@@H](CC(=O)Oc2ccc([N+](=O)[O-])cc2)N1` (stereo partly drawn), for which the EC50 is over 200 µM and the IC50 was over 200 µM.

Turning to `COC([C@@H](OC(=O)c1ccccc1)[C@H](OC(=O)c1ccccc1)C(O)COC(=O)c1ccccc1)n1cc(C)c(=O)[nH]c1=O` (stereo partly drawn), the EC50 is over 200 µM and the half-maximal inhibitory concentration (IC50) turned out to be 13.2 µM.

For `COc1ccc(NC(=S)c2ccoc2C)cc1CC(=O)OC(C)C`, the EC50 was 0.174 µM and the IC50 turned out to be 1.51 µM.

For `O=C1C2CCN(CC2)C1CNC1(c2ccccc2)CCCCC1` (stereo not drawn), the outcome was inactive.

For `Cc1ccc(/C=C2\Cc3cc(C)c(C)cc3C2=O)c(C(=O)O)c1`, the EC50 was over 200 µM and the IC50 was determined as 38.9 µM.

As for `COC(=O)CC1CCC(c2ccn(S(=O)(=O)c3ccccc3)c2)=NO1` (stereo not drawn), the EC50 was over 200 µM and the half-inhibitory concentration (IC50) is over 200 µM.

On to `O=C(O)c1ccccc1/C=N\NC1=NCCN1`, for which the EC50 was 69.2 µM and the half-inhibitory concentration (IC50) came out at 115 µM.

Regarding `Cc1ccc2c(c1)C=CC1(O2)N(c2ccccc2)C(=S)OC1(C)C` (stereo not drawn), the EC50 was over 200 µM and the IC50 was 22.4 µM.

As to `CC1CC/C(=C\c2ccc(F)cc2)C(=O)/C1=C/c1ccc(F)cc1` (stereo not drawn), the EC50 was over 19.5 µM and the 50% inhibitory concentration (IC50) is 9.33 µM.

Turning to `S=P(c1ccccc1)(c1ccccc1)C1(C2(P(=S)(c3ccccc3)c3ccccc3)CC2)CC1`, the EC50 is over 10 µM and the IC50 was over 10 µM.

Turning to `CS(=O)(=O)c1cnnc2ccccc12`, the EC50 was over 513 µM and the half-maximal inhibitory concentration (IC50) was over 513 µM.

Consider `CCOC(=O)C1CCc2c1c(C#N)c1[nH]c3ccccc3n1c2=O` (stereo not drawn), for which the EC50 is over 234 µM and the IC50 is over 234 µM.

Regarding `CC1(C)CNC[C@@](C)(O)C(=O)NC(C)(C)CNC[C@@](C)(O)C(=O)N1`, the EC50 is over 200 µM and the IC50 was over 200 µM.

`[Cu+2].c1nnc(N2CNCCNCN(c3nnc[n-]3)CNCCNC2)[n-]1`: the EC50 was over 200 µM and the IC50 was over 200 µM.

Turning to `Oc1ccc(Br)cc1C=Nc1c(NC2CCCCC2)oc2ccc(Br)cc12`, the outcome was inactive.

Turning to `Cc1cccc(C)c1N1C(=O)C(=O)C(c2nc3ccccc3s2)/C(=N\N)C1=O` (stereo not drawn), the outcome was inactive.

Turning to `COc1cccc(CCn2c(N)c(-c3cc(Cl)cc(Cl)c3)c3ccc([N+](=O)[O-])cc3c2=O)c1`, the EC50 was over 200 µM and the IC50 was 3.39 µM.

On to `CCC[CH2][Sn]([CH2]CCC)([CH2]CCC)[CH2]N1CCC(=O)C[C@@H]1C/C=C/[P@]1(=O)O[C@H](c2ccccc2)C(C)N1C(C)C` (stereo partly drawn), for which the outcome was inactive.

With `OCC1C=CC(n2cnc3c(Cl)ncnc32)CC1` (stereo not drawn), the EC50 is over 200 µM and the IC50 turned out to be 34.7 µM.

As for `Oc1cc(O)c2c(c1)OC(c1ccc(O)c(O)c1)C(O)[C@H]2c1c(O)cc(O)c2c1OC(c1ccc(O)c(O)c1)C(O)C2` (stereo partly drawn), the EC50 was over 200 µM and the IC50 was 110 µM.

Turning to `Cc1cc(=O)n(/C=C/C(=O)O)c2ccccc12`, the EC50 is over 200 µM and the IC50 was over 200 µM.

Turning to `COc1c(O)cc2c(c1O)C1O[C@H](CO)C(O)[C@H](O)[C@H]1OC2=O` (stereo partly drawn), the EC50 is over 200 µM and the IC50 is over 200 µM.

With `COC1N(C2C=CC(CO)O2)C(=O)NC(=O)C1(C)I` (stereo not drawn), the EC50 was 0.275 µM and the IC50 was determined as 7.76 µM.

Turning to `CCN1CC2(COC)C(O)CC(OC)C34C5CC6(O)C(OC)C=C(C5C6OC(=O)c5ccc(OC)c(OC)c5)C(C(OC)C23)C14` (stereo not drawn), the outcome was inactive.

Regarding `CN(C)C=NCC(O)c1ccccc1` (stereo not drawn), the EC50 is over 200 µM and the IC50 was over 200 µM.

Turning to `COc1ccc(C2C(=O)c3ccc(OC)cc3OC2c2ccccc2)cc1` (stereo not drawn), the EC50 was over 200 µM and the IC50 stood at 87.1 µM.

In the case of `Cn1nc(-c2ccc(Cl)c(Cl)c2)nc2c(=O)n(C)c(=O)nc1-2`, the EC50 is over 200 µM and the IC50 was determined as 3.8 µM.

For the compound `O=C(O)CCCCCCCCCCCc1ccccc1`, the EC50 was over 200 µM and the IC50 worked out at 18.6 µM.

As to `O=C1CN(C(=O)c2ccccc2)Cc2[nH]c3ccccc3c21`, the result was inactive.

`CCOc1ccc(N2C(=O)C3c4[nH]c5ccccc5c4C4CCC(C(C)(C)C)CC4C3C2=O)cc1` (stereo not drawn): the EC50 was over 2.19 µM and the half-maximal inhibitory concentration (IC50) was over 2.19 µM.

`O=C1N2Cc3c4ccc5c3CN3C(=O)N6Cc7c(ccc(c7CN1C6(c1ccccc1)C23c1ccccc1)OCCOCCOc1cc(Br)c(Br)cc1OCCOCCO4)OCCOCCOc1cc(Br)c(Br)cc1OCCOCCO5` (stereo not drawn): the EC50 was over 0.55 µM and the IC50 was over 0.55 µM.

With `O=C1/C(=C\c2ccc(O)cc2)CCC/C1=C/c1ccc(Cl)c(Cl)c1`, the EC50 was over 200 µM and the IC50 was determined as 1.12 µM.

With `Cc1nc(N(C(C)C)C(C)C)c(C(C)C)o1`, the EC50 was over 200 µM and the IC50 was over 200 µM.

Take `CCOC(=O)C1=C(C)C(C(=O)OC)[C@]2(C)C(C(=O)OCC)=C(O)C(C(=O)OC)[C@]12C` (stereo partly drawn): the EC50 is over 126 µM and the IC50 was over 126 µM.

With `O=C(NCCO)c1cc2c(cn1)[nH]c1ccccc12`, the outcome was inactive.
